Experimental data published in ChEMBL document CHEMBL1122195, “Effect of 4'-halogen substitution on the mutagenicity of trans-4-acetamidostilbene and trans-4-(N-hydroxyacetamido)stilbene in the Salmonella typhimurium test system” (1982).

Tested on: Salmonella typhimurium
Experiment: Comparative mutagenic activity toward Salmonella Typhimurium strain TA-100 at concentration of 10 nmol/plate
Format: functional, Salmonella enterica subsp. enterica serovar Typhimurium

For CC(=O)N(O)c1ccc(/C=C/c2ccccc2)cc1, the Revertants/plate was 1218.
CC(=O)Nc1ccc(/C=C/c2ccc(F)cc2)cc1 showed a Revertants/plate of 632.
With CC(=O)N(O)c1ccc(/C=C/c2ccc(Cl)cc2)cc1 the Revertants/plate was 356.
In the case of CC(=O)Nc1ccc(/C=C/c2ccc(Br)cc2)cc1, the Revertants/plate is reported as 211.
Compound CC(=O)N(O)c1ccc(/C=C/c2ccc(Br)cc2)cc1 has a Revertants/plate of 374.
Compound CC(=O)N(O)c1ccc(/C=C/c2ccc(F)cc2)cc1 has a Revertants/plate of 825.
Compound CC(=O)Nc1ccc(/C=C/c2ccccc2)cc1 has a Revertants/plate of 385.
Work on CC(=O)Nc1ccc(/C=C/c2ccc(Cl)cc2)cc1 yielded a Revertants/plate of 382.
